Results from ChEMBL document CHEMBL6078684, “Discovery of a Novel Non-invasive AR PROTAC Degrader for the Topical Treatment of Androgenetic Alopecia” (J Med Chem, 2024).
Active and inactive are the calls of the source. The calls are words filed in the database; no cut-off is given here.

Tests used:
Mus musculus [1] = test: Hair regeneration efficacy in testosterone induced male C57BL/6 mouse androgenetic alopecia model assessed as increase in hair cycle score at 0.1 %, TOP administered once daily for 14 days with co-administration of 0.2% testosterone for 28 days; assay type: functional, organism-based; settings: time 14.0 day
[2] = Ratio of drug concentration in male ICR mouse skin to lungs at 4 mg/ml, TOP measured after 0.5 hrs by LC-MS/MS analysis; assay type: ADME, tissue-based, Skin/Lung; settings: in vivo, topical_or_ocular
[3] = Ratio of drug concentration in male ICR mouse skin to kidney at 4 mg/ml, TOP measured after 8 hrs by LC-MS/MS analysis; assay type: ADME, tissue-based; settings: in vivo, topical_or_ocular
[4] = target: T1, Protein cereblon/Androgen receptor (Mus musculus) (UniProt P19091+Q8C7D2); test: (§1) In vivo PROTAC activity at CRBN/AR in testosterone induced male C57BL/6 mouse androgenetic alopecia model assessed as increase in beta-catenin expression level in skin at 0.4 % TOP administered once daily for 14 days with co-administration of 0.2% testosterone for 28 days by DAPI staining based immunofluorescence analysis; assay type: functional, organism-based; settings: time 14.0 day
T1 sequence (P19091 whole entry, looked up): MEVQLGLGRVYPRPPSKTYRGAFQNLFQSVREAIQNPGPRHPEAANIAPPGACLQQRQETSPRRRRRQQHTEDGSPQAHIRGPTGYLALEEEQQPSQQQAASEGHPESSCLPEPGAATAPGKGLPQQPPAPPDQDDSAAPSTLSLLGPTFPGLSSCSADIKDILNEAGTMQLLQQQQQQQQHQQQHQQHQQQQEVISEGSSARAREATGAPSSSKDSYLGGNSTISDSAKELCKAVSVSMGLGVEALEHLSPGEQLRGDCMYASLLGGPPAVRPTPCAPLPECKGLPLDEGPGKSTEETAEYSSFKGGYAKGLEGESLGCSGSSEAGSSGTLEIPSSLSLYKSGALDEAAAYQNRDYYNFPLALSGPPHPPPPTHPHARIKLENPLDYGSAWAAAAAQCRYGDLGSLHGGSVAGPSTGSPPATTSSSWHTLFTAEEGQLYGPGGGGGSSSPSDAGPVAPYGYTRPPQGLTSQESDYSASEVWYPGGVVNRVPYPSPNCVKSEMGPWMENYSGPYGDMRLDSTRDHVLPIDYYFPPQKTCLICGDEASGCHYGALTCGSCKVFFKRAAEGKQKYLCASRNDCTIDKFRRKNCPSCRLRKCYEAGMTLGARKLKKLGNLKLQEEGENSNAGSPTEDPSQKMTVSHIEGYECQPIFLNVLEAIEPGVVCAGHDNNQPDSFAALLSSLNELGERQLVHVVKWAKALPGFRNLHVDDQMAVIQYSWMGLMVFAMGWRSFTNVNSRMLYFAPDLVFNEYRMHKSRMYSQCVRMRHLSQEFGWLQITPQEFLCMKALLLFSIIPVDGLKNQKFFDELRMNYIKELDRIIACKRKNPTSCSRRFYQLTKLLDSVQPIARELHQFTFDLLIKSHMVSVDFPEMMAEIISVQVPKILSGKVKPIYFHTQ
T1 sequence (Q8C7D2 whole entry, looked up): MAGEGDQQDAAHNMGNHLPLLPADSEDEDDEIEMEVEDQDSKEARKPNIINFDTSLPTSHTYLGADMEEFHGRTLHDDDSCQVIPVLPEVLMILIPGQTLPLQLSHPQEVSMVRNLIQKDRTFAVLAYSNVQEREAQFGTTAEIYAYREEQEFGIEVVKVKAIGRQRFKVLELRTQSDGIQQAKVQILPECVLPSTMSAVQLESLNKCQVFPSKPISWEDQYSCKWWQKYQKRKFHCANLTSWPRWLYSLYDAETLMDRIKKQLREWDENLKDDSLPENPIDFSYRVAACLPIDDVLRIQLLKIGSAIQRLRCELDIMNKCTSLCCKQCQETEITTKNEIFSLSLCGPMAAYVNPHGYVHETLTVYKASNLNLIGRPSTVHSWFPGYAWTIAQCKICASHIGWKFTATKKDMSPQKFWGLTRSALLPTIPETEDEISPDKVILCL

[5] = Ratio of drug concentration in male ICR mouse skin to kidney at 4 mg/ml, TOP measured after 2 hrs by LC-MS/MS analysis; assay type: ADME, tissue-based; settings: in vivo, topical_or_ocular
[6] = Ratio of drug concentration in male ICR mouse skin to liver at 4 mg/ml, TOP measured after 0.25 hrs by LC-MS/MS analysis; assay type: ADME, tissue-based; settings: in vivo, topical_or_ocular
[7] = Ratio of drug concentration in male ICR mouse skin to spleen at 4 mg/ml, TOP measured after 12 hrs by LC-MS/MS analysis; assay type: ADME, tissue-based; settings: in vivo, topical_or_ocular
[8] = target: T1, Protein cereblon/Androgen receptor (Mus musculus); test: (§2) In vivo PROTAC activity at CRBN/AR in testosterone induced male C57BL/6 mouse androgenetic alopecia model assessed as decrease in AR protein level in skin at 0.1 to 0.4 % TOP administered once daily for 14 days with co-administration of 0.2% testosterone for 28 days by Western blot analysis; assay type: functional, organism-based; settings: dose 0.1-0.4 %, time 14.0 day
[9] = AUC (0 to t) in male ICR mouse plasma at 4 mg/ml, TOP measured after 12 hrs by LC-MS/MS analysis; assay type: ADME, cell-free; settings: topical or ocular
[10] = target: T1, Protein cereblon/Androgen receptor (Mus musculus); test: as §1, with “decrease” for “increase”, “TGF-beta” for “beta-catenin”; assay type: functional, organism-based; settings: time 14.0 day
[11] = target: T2, Protein cereblon/Androgen receptor (Homo sapiens, UniProt P10275+Q96SW2); test: PROTAC activity at CRBN/AR in human dermal papilla cell assessed as induction of AR degradation measured after 24 hrs by Western blot analysis; assay type: cell-based
Target sequence in this assay (P10275 whole entry): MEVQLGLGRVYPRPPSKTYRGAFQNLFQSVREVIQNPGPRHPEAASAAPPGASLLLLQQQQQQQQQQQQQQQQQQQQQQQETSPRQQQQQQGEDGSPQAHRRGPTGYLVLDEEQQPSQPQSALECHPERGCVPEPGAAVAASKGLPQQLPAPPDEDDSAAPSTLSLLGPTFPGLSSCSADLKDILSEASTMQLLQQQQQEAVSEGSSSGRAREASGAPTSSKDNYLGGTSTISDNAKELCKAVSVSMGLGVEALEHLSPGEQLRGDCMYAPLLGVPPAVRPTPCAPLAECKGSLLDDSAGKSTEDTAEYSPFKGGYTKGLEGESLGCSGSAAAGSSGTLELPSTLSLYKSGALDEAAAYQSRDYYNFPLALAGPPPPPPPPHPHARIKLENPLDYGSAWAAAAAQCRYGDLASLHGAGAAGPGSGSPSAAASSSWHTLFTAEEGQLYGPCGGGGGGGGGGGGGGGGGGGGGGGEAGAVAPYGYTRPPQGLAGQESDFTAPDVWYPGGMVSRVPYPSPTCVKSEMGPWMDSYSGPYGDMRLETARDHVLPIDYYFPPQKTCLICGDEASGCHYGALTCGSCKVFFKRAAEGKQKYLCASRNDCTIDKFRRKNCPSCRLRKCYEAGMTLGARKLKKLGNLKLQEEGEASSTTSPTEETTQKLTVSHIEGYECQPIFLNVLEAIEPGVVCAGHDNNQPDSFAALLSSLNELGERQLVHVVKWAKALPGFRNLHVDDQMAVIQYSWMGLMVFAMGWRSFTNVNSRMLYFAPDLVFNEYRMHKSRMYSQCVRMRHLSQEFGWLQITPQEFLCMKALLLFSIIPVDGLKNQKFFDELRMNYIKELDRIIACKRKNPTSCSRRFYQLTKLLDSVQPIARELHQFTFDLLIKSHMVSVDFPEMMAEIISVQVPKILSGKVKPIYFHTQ
Target sequence in this assay (Q96SW2 whole entry): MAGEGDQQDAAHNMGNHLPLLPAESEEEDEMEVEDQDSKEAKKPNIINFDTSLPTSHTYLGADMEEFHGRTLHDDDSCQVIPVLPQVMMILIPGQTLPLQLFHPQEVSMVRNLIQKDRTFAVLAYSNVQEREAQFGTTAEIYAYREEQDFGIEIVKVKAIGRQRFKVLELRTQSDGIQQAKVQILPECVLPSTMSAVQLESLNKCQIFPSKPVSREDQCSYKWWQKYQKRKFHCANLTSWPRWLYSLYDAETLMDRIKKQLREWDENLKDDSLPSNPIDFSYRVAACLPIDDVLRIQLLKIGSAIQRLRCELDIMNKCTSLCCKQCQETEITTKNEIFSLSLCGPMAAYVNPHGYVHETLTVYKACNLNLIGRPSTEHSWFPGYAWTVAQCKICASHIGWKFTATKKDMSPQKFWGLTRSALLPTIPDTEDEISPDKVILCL

[12] = AUC (0 to t) in male ICR mouse skin at 4 mg/ml, TOP measured after 12 hrs by LC-MS/MS analysis; assay type: ADME, tissue-based, Skin of body; settings: in vivo, topical_or_ocular
[13] = target: T2, Protein cereblon/Androgen receptor; test: PROTAC activity at CRBN/AR in human dermal papilla cells assessed as decrease in AR protein level at 1 uM preincubated with testosterone for 24 hrs followed by compound addition and measured after 48 hrs by Western blot analysis; assay type: cell-based; settings: Human dermal papilla cell
Target sequence in this assay (P10275 whole entry, looked up): as the sequence (P10275 whole entry) above
Target sequence in this assay (Q96SW2 whole entry, looked up): as the sequence (Q96SW2 whole entry) above

[14] = Ratio of drug concentration in male ICR mouse skin to kidney at 4 mg/ml, TOP measured after 0.25 hrs by LC-MS/MS analysis; assay type: ADME, tissue-based; settings: in vivo, topical_or_ocular
[15] = Ratio of drug concentration in male ICR mouse skin to plasma at 4 mg/ml, TOP measured after 8 hrs by LC-MS/MS analysis; assay type: ADME, cell-free; settings: other tissue, topical_or_ocular
[16] = Ratio of drug concentration in male ICR mouse skin to liver at 4 mg/ml, TOP measured after 0.5 hrs by LC-MS/MS analysis; assay type: ADME, tissue-based; settings: in vivo, topical_or_ocular
[17] = Ratio of drug concentration in male ICR mouse skin to spleen at 4 mg/ml, TOP measured after 0.25 hrs by LC-MS/MS analysis; assay type: ADME, tissue-based; settings: in vivo, topical_or_ocular
[18] = Ratio of drug concentration in male ICR mouse skin to heart at 4 mg/ml, TOP measured after 12 hrs by LC-MS/MS analysis; assay type: ADME, tissue-based; settings: in vivo, topical_or_ocular
[19] = target: T2, Protein cereblon/Androgen receptor; test: PROTAC activity at CRBN/AR in human dermal papilla cells assessed as increase in beta-catenin protein level at 250 to 1000 nM preincubated with testosterone for 24 hrs followed by compound addition and measured after 48 hrs by Western blot analysis; assay type: cell-based; settings: Human dermal papilla cell, dose 250-1000 nM
Target sequence in this assay (P10275 whole entry, looked up): as the sequence (P10275 whole entry) above
Target sequence in this assay (Q96SW2 whole entry, looked up): as the sequence (Q96SW2 whole entry) above

Mus musculus [20] = test: Hair regeneration efficacy in testosterone induced male C57BL/6 mouse androgenetic alopecia model assessed as generation of thick hair with intact scales at 0.4 %, TOP administered once daily for 14 days with co-administration of 0.2% testosterone and measured after 28 days by SEM analysis; assay type: functional, organism-based; settings: time 28.0 day
[21] = target: T2, Protein cereblon/Androgen receptor; test: PROTAC activity at CRBN/AR in human dermal papilla cell assessed as induction of AR degradation at 500 nM measured after 24 hrs by Western blot analysis; assay type: cell-based
Target sequence in this assay (P10275 whole entry, looked up): as the sequence (P10275 whole entry) above
Target sequence in this assay (Q96SW2 whole entry, looked up): as the sequence (Q96SW2 whole entry) above

[22] = target: T2, Protein cereblon/Androgen receptor; test: PROTAC activity at CRBN/AR in human dermal papilla cells assessed as inhibition of TGF-beta1 release by measuring fold change in TGF-beta1 concentration at 1 uM preincubated with testosterone for 24 hrs followed by compound addition and measured after 48 hrs by ELISA relative to minoxidil; assay type: cell-based; settings: Human dermal papilla cell
Target sequence in this assay (P10275 whole entry, looked up): as the sequence (P10275 whole entry) above
Target sequence in this assay (Q96SW2 whole entry, looked up): as the sequence (Q96SW2 whole entry) above

[23] = Ratio of drug concentration in male ICR mouse skin to heart at 4 mg/ml, TOP measured after 4 hrs by LC-MS/MS analysis; assay type: ADME, tissue-based; settings: in vivo, topical_or_ocular
[24] = Ratio of drug concentration in male ICR mouse skin to heart at 4 mg/ml, TOP measured after 1 hrs by LC-MS/MS analysis; assay type: ADME, tissue-based; settings: in vivo, topical_or_ocular
[25] = target: T2, Protein cereblon/Androgen receptor; test: PROTAC activity at CRBN/AR in human dermal papilla cells assessed as inhibition of TGF-beta1 release by measuring TGF-beta1 concentration at 1 uM preincubated with testosterone for 24 hrs followed by compound addition and measured after 48 hrs by ELISA; assay type: cell-based; settings: Human dermal papilla cell
Target sequence in this assay (P10275 whole entry, looked up): as the sequence (P10275 whole entry) above
Target sequence in this assay (Q96SW2 whole entry, looked up): as the sequence (Q96SW2 whole entry) above

Mus musculus [26] = test: Hair regeneration efficacy in testosterone induced male C57BL/6 mouse androgenetic alopecia model assessed as well formed stratum corneum in hair at 0.4 %, TOP administered once daily for 14 days with co-administration of 0.2% testosterone and measured after 28 days by SEM analysis; assay type: functional, organism-based; settings: time 28.0 day
[27] = target: T2, Protein cereblon/Androgen receptor; test: PROTAC activity at CRBN/AR in human dermal papilla cell assessed as induction of AR degradation measured after 24 to 72 hrs by Western blot analysis; assay type: cell-based
Target sequence in this assay (P10275 whole entry): as the sequence (P10275 whole entry) above
Target sequence in this assay (Q96SW2 whole entry): as the sequence (Q96SW2 whole entry) above

Mus musculus [28] = test: Hair regeneration efficacy in testosterone induced male C57BL/6 mouse androgenetic alopecia model at 0.4 %, TOP administered once daily for 14 days and measured after 21 days with co-administration of 0.2% testosterone for 28 days relative to minoxidil by photographic analysis; assay type: functional; settings: time 14 day
[29] = Drug uptake in male ICR mouse spleen at 4 mg/ml, TOP measured after 12 hrs by LC-MS/MS analysis; assay type: ADME, tissue-based; settings: in vivo, topical_or_ocular
[30] = Ratio of drug concentration in male ICR mouse skin to lungs at 4 mg/ml, TOP measured after 0.25 hrs by LC-MS/MS analysis; assay type: ADME, tissue-based, Skin/Lung; settings: in vivo, topical_or_ocular
[31] = target: T1, Protein cereblon/Androgen receptor (Mus musculus); test: as §2, with “at” for “at 0.1 to”, “analysis relative to control” for “analysis”; assay type: functional, organism-based; parameters: scale not given: the % may be the effect or the level left; settings: time 14.0 day
[32] = Ratio of drug concentration in male ICR mouse skin to lungs at 4 mg/ml, TOP measured after 8 hrs by LC-MS/MS analysis; assay type: ADME, tissue-based, Skin/Lung; settings: in vivo, topical_or_ocular
[33] = Ratio of drug concentration in male ICR mouse skin to lungs at 4 mg/ml, TOP measured after 12 hrs by LC-MS/MS analysis; assay type: ADME, tissue-based, Skin/Lung; settings: in vivo, topical_or_ocular

SMILES: N#Cc1ccc(O[C@H]2CC[C@H](NC(=O)c3ccc(C4CCN(CC5CCCN(c6ccc(C(=O)NC7CCC(=O)NC7=O)cc6)C5)CC4)cc3)CC2)cc1Cl (stereo partly drawn)
- Activity (Mus musculus [1]): Active; Less Effective Compared To High Dose Compound Group And Minoxidil Group
- Ratio [2]: 54.37
- Ratio [3]: 191.71
- Activity [4]: Active
- Ratio [5]: 410.02
- Ratio [6]: 344.99
- Ratio [7]: 249.88
- Activity [8]: Active
- AUC(0-t) at 12 h [9]: 992 ng·h/mL
- Activity [10]: Active
- DC50 [11]: 262 nM
- AUCt [12]: 651924.91 ng·h/g
- Activity [13]: Active; Most Pronounced Degradation Observed
- Ratio [14]: 484.4
- Ratio [15]: 2610.82
- Ratio [16]: 465.04
- Ratio [17]: 510.81
- Ratio [18]: 274.38
- Activity [19]: Active
- Activity (Mus musculus [20]): Active
- Activity [21]: Active; Maximum Degradation Level Observed
- fold change (FC) [22]: 0.77
- Ratio [23]: 403.09
- Ratio [24]: 996.6
- Activity [25]: 736 pg/mL
- Activity (Mus musculus [26]): Active
- DC50 [27]: 200 nM
- Activity (Mus musculus [28]): 100%
- Drug uptake [29]: Active
- Ratio [30]: 269.54
- Activity [31]: > 50%
- Ratio [32]: 800.46
- Ratio [33]: 288.26
